Test results taken from US20250176599A1, “FLAVOR COMPOSITION AND FOOD AND BEVERAGE” (TAKASAGO INTERNATIONAL CORPORATION, priority 2021, published 2025).

Assays:
[1] = Sensory evaluation of aqueous solution II containing (E)-2-octenal 10 ppb: off-flavor intensity and masking component intensity; conditions: (E)-2-octenal 10 ppb, average score 0-4
Outline: (§1)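 Eight trained panelists tasted water solutions of the off-flavor compounds spiked with nootkatone. Masking-agent taste was scored absolutely from 0 (not sensed) to 4 (strong). Off-flavor was scored relatively, anchored at 4 for the solution without masker and 0 for ion-exchanged water.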

[2] = Sensory evaluation of aqueous solution V containing 1-octen-3-ol 10 ppb: off-flavor intensity and masking component intensity; conditions: 1-octen-3-ol 10 ppb, average score 0-4
Outline: as §1

[3] = Sensory evaluation of aqueous solution III containing 1-octen-3-one 1 ppb: off-flavor intensity and masking component intensity; conditions: 1-octen-3-one 1 ppb, average score 0-4
Outline: as §1

[4] = Sensory evaluation of aqueous solution I containing (E)-2-nonenal 1 ppb: off-flavor intensity and masking component intensity; conditions: (E)-2-nonenal 1 ppb, average score 0-4
Outline: as §1

[5] = Sensory evaluation of aqueous solution IV containing 1,5-octadien-3-one 100 ppt: off-flavor intensity and masking component intensity; conditions: aqueous solution IV, 1,5-octadien-3-one 100 ppt, average score 0-4
Outline: as §1

[6] = Sensory evaluation of aqueous solution VI containing 1,5-octadien-3-ol 10 ppb: off-flavor intensity and masking component intensity; conditions: aqueous solution VI, 1,5-octadien-3-ol 10 ppb, average score 0-4
Outline: as §1

[7] = Overall conclusion of the sensory evaluation across aqueous solutions I to VI
Outline: as §1

In the case of `CC(=O)/C=C/C1=C(C)CCCC1(C)C` [β-Ionone, β-ionone], the “Off-Flavor Intensity” value ([1]; 0.01 ppt added) is reported as 3.1 points, the “Off-Flavor Intensity” value ([1]; 0.1 ppt added) is reported as 3.0 points and the “Off-Flavor Intensity” value ([1]; 1 ppb added) is reported as 1.6 points. The “Off-Flavor Intensity” value ([1]; 1 ppm added) was 0.1 points, the “Off-Flavor Intensity” value ([1]; 1 ppt added) was 2.6 points and the “Off-Flavor Intensity” value ([1]; 10 ppb added) was 1.4 points. For the same molecule, the “Off-Flavor Intensity” value ([1]; 10 ppt added) was 2.3 points, the “Off-Flavor Intensity” value ([1]; 100 ppb added) was 0.8 points and the “Off-Flavor Intensity” value ([1]; 100 ppt added) was 2.0 points. The “Off-Flavor Intensity” value ([2]; 0.01 ppt added) was 3.3 points, the “Off-Flavor Intensity” value ([2]; 0.1 ppt added) was 3.0 points and the “Off-Flavor Intensity” value ([2]; 1 ppb added) was 1.8 points. For the same molecule, the “Off-Flavor Intensity” value ([2]; 1 ppm added) was 0.3 points, the “Off-Flavor Intensity” value ([2]; 1 ppt added) was 2.5 points and the “Off-Flavor Intensity” value ([2]; 10 ppb added) was 1.4 points. The “Off-Flavor Intensity” value ([2]; 10 ppt added) was 2.5 points, the “Off-Flavor Intensity” value ([2]; 100 ppb added) was 0.8 points and the “Off-Flavor Intensity” value ([2]; 100 ppt added) was 2.3 points. For the same molecule, the “Off-Flavor Intensity” value ([3]; 0.01 ppt added) was 3.5 points, the “Off-Flavor Intensity” value ([3]; 0.1 ppt added) was 3.3 points and the “Off-Flavor Intensity” value ([3]; 1 ppb added) was 2.0 points. For the same molecule, the “Off-Flavor Intensity” value ([3]; 1 ppm added) was 0.8 points, the “Off-Flavor Intensity” value ([3]; 1 ppt added) was 3.0 points and the “Off-Flavor Intensity” value ([3]; 10 ppb added) was 1.6 points. The “Off-Flavor Intensity” value ([3]; 10 ppt added) was 2.8 points, the “Off-Flavor Intensity” value ([3]; 100 ppb added) was 1.4 points and the “Off-Flavor Intensity” value ([3]; 100 ppt added) was 2.5 points. For the same molecule, the “Off-Flavor Intensity” value ([4]; 0.01 ppt added) was 3.4 points, the “Off-Flavor Intensity” value ([4]; 0.1 ppt added) was 3.1 points and the “Off-Flavor Intensity” value ([4]; 1 ppb added) was 1.8 points. For the same molecule, the “Off-Flavor Intensity” value ([4]; 1 ppm added) was 0.5 points, the “Off-Flavor Intensity” value ([4]; 1 ppt added) was 2.6 points and the “Off-Flavor Intensity” value ([4]; 10 ppb added) was 1.4 points. For the same molecule, the “Off-Flavor Intensity” value ([4]; 10 ppt added) was 2.6 points, the “Off-Flavor Intensity” value ([4]; 100 ppb added) was 0.8 points and the “Off-Flavor Intensity” value ([4]; 100 ppt added) was 2.3 points. The “Off-Flavor Intensity” value ([5]; 0.01 ppt added) was 3.8 points, the “Off-Flavor Intensity” value ([5]; 0.1 ppt added) was 3.5 points and the “Off-Flavor Intensity” value ([5]; 1 ppb added) was 2.5 points. The “Off-Flavor Intensity” value ([5]; 1 ppm added) was 1.0 points, the “Off-Flavor Intensity” value ([5]; 1 ppt added) was 3.5 points and the “Off-Flavor Intensity” value ([5]; 10 ppb added) was 2.3 points. The “Off-Flavor Intensity” value ([5]; 10 ppt added) was 3.4 points, the “Off-Flavor Intensity” value ([5]; 100 ppb added) was 1.6 points and the “Off-Flavor Intensity” value ([5]; 100 ppt added) was 3.0 points. For the same molecule, the “Off-Flavor Intensity” value ([6]; 0.01 ppt added) was 3.3 points, the “Off-Flavor Intensity” value ([6]; 0.1 ppt added) was 2.9 points and the “Off-Flavor Intensity” value ([6]; 1 ppb added) was 1.8 points. The “Off-Flavor Intensity” value ([6]; 1 ppm added) was 0.4 points, the “Off-Flavor Intensity” value ([6]; 1 ppt added) was 2.6 points and the “Off-Flavor Intensity” value ([6]; 10 ppb added) was 1.5 points. For the same molecule, the “Off-Flavor Intensity” value ([6]; 10 ppt added) was 2.3 points, the “Off-Flavor Intensity” value ([6]; 100 ppb added) was 0.8 points and the “Off-Flavor Intensity” value ([6]; 100 ppt added) was 2.1 points. For the same molecule, the “concentration that masks the off-flavor and does not affect the flavor of the food and/or beverage itself, lower limit” value [7] was no less than 0.1 ppt and the “concentration that masks the off-flavor and does not affect the flavor of the food and/or beverage itself, upper limit” value [7] was no more than 100 ppb.
